Results on 77 sequences are retold here after the supplement of paper PMC11208160.
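Further: IS621 recombinase and bridge RNA in Escherichia coli cells.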

A short description of this data set: recombinant barcode read abundance after kanamycin selection (control-corrected) (log10(CPM+1)); higher = more efficient recombination; sequences stand for … in AGTGCAGAGAAAATCGGCCAGTTTTCTCTGCCTGCAGTCCGCATGCCGT…AGATTTATGCAGCGGACTGCCTTTCTCCCAAAGTGATAAACCGGACAGTATCATGGACCGGTTTTCCCGGTAATCCGTATTTGCAAGGTTGGTTTCACT; site = the 11-nt target. A digest of the protocol:
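A promoter, a target, a barcode and the first 104 bridge RNA bases under J23119 made up each oligo. Oligos were Gibson-cloned into a vector bearing the other 73 bp and a T7-inducible recombinase, then co-electroporated into E. coli with a donor plasmid and plated in duplicate on chloramphenicol/ampicillin LB agar (control) or chloramphenicol/ampicillin/kanamycin with 0.1 mM IPTG. Recombination efficiency is the averaged, control-corrected counts per million of recombinant-junction barcodes. Reported values are log10(CPM+1).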
On to “TAGCCATCTTGGGTTCTAACCTGTTGCCT (site TAACCATCTAG)”, for which the “recombinant barcode read abundance (log10)” value was determined as 0.0247.
On to “TAGCCATCTTGGGTTCTAACCTGTTGCCT (site TACCCATCTAG)”, for which the “recombinant barcode read abundance (log10)” value amounted to 0.166.
For the sequence “TAGCCATCTTGGGTTCTAACCTGTTGCCT (site TAGCCATCTAG)”, the “recombinant barcode read abundance (log10)” value came to 0.121.
In the case of “TAGCCATCTTGGGTTCTAACCTGTTGCCT (site TATCCATCTAG)”, the “recombinant barcode read abundance (log10)” value came to 0.0171.
Next, “TAGCCCTCTTGGGTTCTAACCTGTTGCAA (site ACAGTACCTCA)”: 0.202; “TAGCCCTCTTGGGTTCTAACCTGTTGCAA (site TAGCCCTCTTT)”: 2.02; “TAGCCCTCTTGGGTTCTAACCTGTTGCCG (site TAGCCCTCTCG)”: 1.82.
For the sequence “TAGCCCTCTTGGGTTCTAACCTGTTGCCG (site TAGTCCGCTCG)”, the “recombinant barcode read abundance (log10)” value worked out at 0.023.
The figure for “TAGCCGGCTTGGGTTCTAACCTGTTGCAG (site GAGCCGACTCT)” is 0.385.
The figure for “TAGCCGGCTTGGGTTCTAACCTGTTGCAG (site TAGCCGGCTCT)” is 1.06.
Turning to “TAGCCGGCTTGGGTTCTAACCTGTTGCCT (site TAGCCGGCTAA)”, the “recombinant barcode read abundance (log10)” value was determined as 0.264.
The figure for “TAGCCGGCTTGGGTTCTAACCTGTTGCCT (site TAGCCGGCTAG)” is 0.907; for “TAGCCGGCTTGGGTTCTAACCTGTTGCTT (site TAGCCGGCTAA)” it is 0.358.
Take “TAGCCGGCTTGGGTTCTAACCTGTTGCTT (site TAGCCGGCTAG)”: the “recombinant barcode read abundance (log10)” value is 0.386.
The figure for “TAGCCTTCTTGGGTTCTAACCTGTTGCCT (site TAGCCTTCTAG)” is 0.572; for “TAGCCTTCTTGGGTTCTAACCTGTTGCCT (site TCGCCTTCTAG)” it is 0.204; for “TAGCCTTCTTGGGTTCTAACCTGTTGCCT (site TGGCCTTCTAG)” it is 0.0192.
Next, “TAGCCTTCTTGGGTTCTAACCTGTTGCCT (site TTGCCTTCTAG)”: 0.0659.
The figure for “TAGCGGACTTGGGTTCTAACCTGTTGCAT (site TAGCGGACTAT)” is 0.992; for “TAGCGGACTTGGGTTCTAACCTGTTGCAT (site TAGCGGTCTAG)” it is 0.0826.
With “TAGCGGTCTTGGGTTCTAACCTGTTGCCT (site TAGCGGACTAT)”, the “recombinant barcode read abundance (log10)” value amounted to 0.0756.
With “TAGCGGTCTTGGGTTCTAACCTGTTGCCT (site TAGCGGTCTAG)”, the “recombinant barcode read abundance (log10)” value was found to be 1.46.
In the case of “TAGCGTACTTGGGTTCTAACCTGTTGCGG (site TAGCGTACTAC)”, the “recombinant barcode read abundance (log10)” value stood at 0.107.
Take “TAGCGTACTTGGGTTCTAACCTGTTGCGG (site TAGCGTACTCC)”: the “recombinant barcode read abundance (log10)” value amounted to 1.79.
Next, “TAGCTCACTTGGGTTCTAACCTGTTGCGG (site TAGCACACTCC)”: 0.0805; “TAGCTCACTTGGGTTCTAACCTGTTGCGG (site TAGCCCACTCC)”: 0.581; “TAGCTCACTTGGGTTCTAACCTGTTGCGG (site TAGCGCACTCC)”: 0.791.
As to “TAGCTCACTTGGGTTCTAACCTGTTGCGG (site TAGCTCACTCC)”, the “recombinant barcode read abundance (log10)” value stood at 1.3.
Consider “TAGCTCCCTTGGGTTCTAACCTGTTGCCG (site TAGCTCCCTAG)”, for which the “recombinant barcode read abundance (log10)” value was 0.475.
The figure for “TAGCTCCCTTGGGTTCTAACCTGTTGCCG (site TAGCTCCCTCG)” is 1.43; for “TAGCTCCCTTGGGTTCTAACCTGTTGCCG (site TAGCTCCCTGG)” it is 0.238.
As to “TAGCTCCCTTGGGTTCTAACCTGTTGCCG (site TAGCTCCCTTG)”, the “recombinant barcode read abundance (log10)” value was determined as 0.379.
Next, “TAGCTCCCTTGGGTTCTAACCTGTTGCCT (site TAGCTCCCTAG)”: 1.21; “TAGCTCCCTTGGGTTCTAACCTGTTGCCT (site TAGCTCCCTCG)”: 0.0637; “TAGCTCCCTTGGGTTCTAACCTGTTGCCT (site TAGCTCCCTGG)”: 0.105.
For the sequence “TAGCTCCCTTGGGTTCTAACCTGTTGCCT (site TAGCTCCCTTG)”, the “recombinant barcode read abundance (log10)” value came to 0.016.
The figure for “TAGCTGACTTGGGTTCTAACCTGTTGCCT (site TAGCAGACTAG)” is 1.14.
The figure for “TAGCTGACTTGGGTTCTAACCTGTTGCCT (site TAGCCGACTAG)” is 0.624.
The figure for “TAGCTGACTTGGGTTCTAACCTGTTGCCT (site TAGCGGACTAG)” is 0.194; for “TAGCTGACTTGGGTTCTAACCTGTTGCCT (site TAGCTGACTAG)” it is 1.28; for “TAGGAACCTTGGGTTCTAACCTGTTGCGT (site GAGGAGCCTAC)” it is 0.022.
Consider “TAGGAACCTTGGGTTCTAACCTGTTGCGT (site TAGGAACCTAC)”, for which the “recombinant barcode read abundance (log10)” value is 3.35.
The figure for “TAGGAAGCTTGGGTTCTAACCTGTTGCGA (site TAGAAAGCTTG)” is 0.108; for “TAGGAAGCTTGGGTTCTAACCTGTTGCGA (site TAGGAAGCTTC)” it is 2.34.
Next, “TAGGACTCTTGGGTTCTAACCTGTTGCAT (site CCTCGTCCTGG)”: 0.0204; “TAGGACTCTTGGGTTCTAACCTGTTGCAT (site TAGGACTCTAT)”: 1.79.
The figure for “TAGGAGACTTGGGTTCTAACCTGTTGCCC (site CAGGAGACTAG)” is 0.0355; for “TAGGAGACTTGGGTTCTAACCTGTTGCCC (site TAGGAGACTGG)” it is 1.99.
For “TAGGAGACTTGGGTTCTAACCTGTTGCGT (site TAGGAAACTAC)”, the “recombinant barcode read abundance (log10)” value worked out at 1.42.
Next, “TAGGAGACTTGGGTTCTAACCTGTTGCGT (site TAGGACACTAC)”: 0.642; “TAGGAGACTTGGGTTCTAACCTGTTGCGT (site TAGGAGACTAC)”: 2.56; “TAGGAGACTTGGGTTCTAACCTGTTGCGT (site TAGGATACTAC)”: 0.233.
Take “TAGGAGCCTTGGGTTCTAACCTGTTGCGT (site TACGAACCTAC)”: the “recombinant barcode read abundance (log10)” value worked out at 0.323.
Take “TAGGAGCCTTGGGTTCTAACCTGTTGCGT (site TAGGAGCCTAC)”: the “recombinant barcode read abundance (log10)” value was 3.27.
The figure for “TAGGCCACTTGGGTTCTAACCTGTTGCCT (site TAGGCCACTAA)” is 0.0204; for “TAGGCCACTTGGGTTCTAACCTGTTGCCT (site TAGGCCACTAC)” it is 0.122; for “TAGGCCACTTGGGTTCTAACCTGTTGCCT (site TAGGCCACTAG)” it is 0.592.
For the sequence “TAGGCCACTTGGGTTCTAACCTGTTGCCT (site TAGGCCACTAT)”, the “recombinant barcode read abundance (log10)” value was found to be 0.
Next, “TAGGCGCCTTGGGTTCTAACCTGTTGCAT (site TAGGCGCCTAA)”: 4.17; “TAGGCGCCTTGGGTTCTAACCTGTTGCAT (site TAGGCGCCTAC)”: 0.723.
With “TAGGCGCCTTGGGTTCTAACCTGTTGCAT (site TAGGCGCCTAG)”, the “recombinant barcode read abundance (log10)” value was found to be 0.0713.
The figure for “TAGGCGCCTTGGGTTCTAACCTGTTGCAT (site TAGGCGCCTAT)” is 0.299.
With “TAGGCGCCTTGGGTTCTAACCTGTTGCGT (site TAGGCGCCTAA)”, the “recombinant barcode read abundance (log10)” value amounted to 0.0787.
Next, “TAGGCGCCTTGGGTTCTAACCTGTTGCGT (site TAGGCGCCTAC)”: 0.735.
The figure for “TAGGCGCCTTGGGTTCTAACCTGTTGCGT (site TAGGCGCCTAG)” is 0.0904; for “TAGGCGCCTTGGGTTCTAACCTGTTGCGT (site TAGGCGCCTAT)” it is 0.249; for “TAGGCGGCTTGGGTTCTAACCTGTTGCGT (site AGCTGTCCTCT)” it is 0.0593.
For “TAGGCGGCTTGGGTTCTAACCTGTTGCGT (site TAGGCGGCTAC)”, the “recombinant barcode read abundance (log10)” value came out at 2.63.
“TAGGCTCCTTGGGTTCTAACCTGTTGCAA (site TAGGCTCCTAT)”: the “recombinant barcode read abundance (log10)” value was 0.309.
Regarding “TAGGCTCCTTGGGTTCTAACCTGTTGCAA (site TAGGCTCCTCT)”, the “recombinant barcode read abundance (log10)” value worked out at 0.0906.
Consider “TAGGCTCCTTGGGTTCTAACCTGTTGCAA (site TAGGCTCCTGT)”, for which the “recombinant barcode read abundance (log10)” value amounted to 0.
In the case of “TAGGCTCCTTGGGTTCTAACCTGTTGCAA (site TAGGCTCCTTT)”, the “recombinant barcode read abundance (log10)” value was determined as 1.41.
As for “TAGGCTCCTTGGGTTCTAACCTGTTGCCG (site TAGCCTACTCG)”, the “recombinant barcode read abundance (log10)” value is 0.00951.
Consider “TAGGCTCCTTGGGTTCTAACCTGTTGCCG (site TAGGCTCCTCG)”, for which the “recombinant barcode read abundance (log10)” value was 0.412.
As to “TAGGCTCCTTGGGTTCTAACCTGTTGCCT (site TAAGATCCTAG)”, the “recombinant barcode read abundance (log10)” value worked out at 0.205.
Next, “TAGGCTCCTTGGGTTCTAACCTGTTGCCT (site TAGGCTCCTAG)”: 0; “TAGGGGACTTGGGTTCTAACCTGTTGCAA (site CGTCCTGCTAA)”: 0.0997.
